Data reported in patent US11999727B2 (Tango Therapeutics, Inc., priority 2020, dated 2024).

What was measured:
PRMT5 [1] = molecular target: T1, PRMT5 (Homo sapiens, UniProt O14744); experiment: PRMT5 biochemical IC50 assay with SAM as cofactor; details: PRMT5, SAM as cofactor; read-out: SAM IC50
T1 construct: purchased Viva (custom protein)

PRMT5 [2] = molecular target: T1, PRMT5; experiment: PRMT5 biochemical IC50 assay with MTA as cofactor; details: PRMT5, MTA as cofactor; read-out: MTA IC50
[3] = system: HAP1 MTAP-deleted cell line; experiment: SDMA in-cell western assay, HAP1 MTAP-deleted; type: cell-based; details: for IC50: Homo sapiens, HAP1, SDMA in-cell western, HAP1 MTAP-deleted; for MTAP intact/deleted ratio: SDMA in-cell western
Summary of the method: (§1)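 MTAP-null vs endogenous-MTAP HAP1 isogenic cells; in-cell western SDMA readout; IC50 per line.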

PRMT5 [4] = molecular target: T1, PRMT5; experiment: PRMT5 biochemical IC50 assay with no cofactor; details: PRMT5, no cofactor
From the text: Table 1 indicates IC50 values (μM) against PRMT5 for exemplary compounds in the presence of SAM as cofactor, with no cofactor, and with MTA as cofactor, respectively (columns 4-6). […] Ki values can be calculated from the IC50 values as described in the Examples section. As detailed in the Examples section, for the assay performed in the presence of SAM, IC50=Ki×1.5 (Ki=IC50/1.5).

[5] = system: HAP1 MTAP-intact cell line; experiment: SDMA in-cell western assay, HAP1 MTAP-intact; type: cell-based; details: Homo sapiens, HAP1, SDMA in-cell western, HAP1 MTAP-intact; read-out: MTAP HAP1 intact IC50
Summary of the method: as §1

[6] = system: HAP1 MTAP-deleted cell line; experiment: Viability assay, MTAP-deleted cell line; type: cell-based; details: Homo sapiens, read-out: HAP1 MTAP deleted viability
From the text: Table 1 additionally indicates IC50 values in a viability assay for the MTAP-deleted cell line (column 10), indicating the effect of treatment with compound on cell survival.

[7] = read-out: HAP1 MTAP deleted IC50
[8] = IC50 ratio HAP1 MTAP-intact / HAP1 MTAP-deleted
[9] = HAP1, viability assay, MTAP-deleted cell line
[10] = read-out: HAP 1 MTAP deleted IC50
[11] = HAP1, viability IC50, MTAP-deleted cell line

T1 sequence (O14744 whole entry): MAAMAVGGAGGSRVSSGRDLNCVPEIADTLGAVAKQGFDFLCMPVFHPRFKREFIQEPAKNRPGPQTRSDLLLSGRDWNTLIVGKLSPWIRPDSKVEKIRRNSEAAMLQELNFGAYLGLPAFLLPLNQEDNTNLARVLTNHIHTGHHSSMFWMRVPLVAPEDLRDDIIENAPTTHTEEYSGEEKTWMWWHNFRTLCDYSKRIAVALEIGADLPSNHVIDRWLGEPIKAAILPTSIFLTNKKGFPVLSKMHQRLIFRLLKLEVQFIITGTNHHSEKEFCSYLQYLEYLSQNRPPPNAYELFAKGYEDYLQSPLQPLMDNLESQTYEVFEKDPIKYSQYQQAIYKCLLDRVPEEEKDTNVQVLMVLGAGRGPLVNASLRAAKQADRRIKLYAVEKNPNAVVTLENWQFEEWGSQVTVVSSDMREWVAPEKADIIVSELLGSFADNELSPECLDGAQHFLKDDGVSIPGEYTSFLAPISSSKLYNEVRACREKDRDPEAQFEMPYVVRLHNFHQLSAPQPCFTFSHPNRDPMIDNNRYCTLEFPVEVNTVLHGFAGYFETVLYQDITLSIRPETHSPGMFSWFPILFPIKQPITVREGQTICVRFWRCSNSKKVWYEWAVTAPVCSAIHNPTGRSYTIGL
T1 sequence (Q9BQA1 whole entry partner): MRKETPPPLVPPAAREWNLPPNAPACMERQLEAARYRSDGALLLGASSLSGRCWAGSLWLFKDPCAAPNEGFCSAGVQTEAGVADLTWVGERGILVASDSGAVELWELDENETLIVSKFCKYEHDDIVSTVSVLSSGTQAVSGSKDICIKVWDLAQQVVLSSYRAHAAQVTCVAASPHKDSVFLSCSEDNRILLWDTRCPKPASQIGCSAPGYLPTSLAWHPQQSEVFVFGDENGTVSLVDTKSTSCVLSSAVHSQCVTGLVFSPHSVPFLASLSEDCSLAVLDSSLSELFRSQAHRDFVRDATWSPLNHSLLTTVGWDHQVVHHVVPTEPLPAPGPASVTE

| SMILES | IC50 (PRMT5 [1]) [nM] | IC50 (PRMT5 [2]) [nM] | IC50 [3, 7] [nM] | MTAP intact/deleted ratio [3, 8] | IC50 (PRMT5 [4]; read-out: No Cofactor/rel IC50) [nM] | IC50 [5] [nM] | IC50 [6, 9] [nM] | MTAP intact/deleted ratio ([3]; IC50 ratio HAP1 MTAP-intact vs HAP1 MTAP-deleted) | IC50 [3, 10] [nM] | IC50 (PRMT5 [4]; read-out: No Cofactor/ rel IC50) [nM] | IC50 ([6]; HAP1, viability, HAP1 MTAP-deleted cell line) [nM] | IC50 [6, 11] [nM] | IC50 ([6]; HAP1, viability assay, HAP1 MTAP-deleted) [nM] |
| --- | --- | --- | --- | --- | --- | --- | --- | --- | --- | --- | --- | --- | --- |
| C[C@@H]1CC[C@@H](c2ccc(CN3CCOCC3)cc2)N(C(=O)C(=O)Nc2cncc(C(N)=O)c2)C1 (racemic) [Compound 213] | 50 to 500 | < 50 | 100 to 1000 | A (an IC50 ratio greater than or equal to 10 fold) | 50 to 500 | > 1000 | > 10000 |  |  |  |  |  |  |
| C[C@H]1CN(C(=O)C(=O)Nc2cnc(N)c(C3CC3)c2)[C@H](c2ccc3scnc3c2)CC1(F)F (single isomer, unassigned) [Compound 1207] | 50 to 500 | 50 to 500 | < 100 |  | 50 to 500 | 100 to 1000 | < 1000 | A (an IC50 ratio greater than or equal to 10 fold) |  |  |  |  |  |
| Cc1ncc(NC(=O)C(=O)N2C[C@@H](C)CC[C@@H]2c2ccc3sc(C4CCN(C)CC4)nc3c2)cc1C(F)F [Compound 1301] | < 50 | < 50 |  | A (an IC50 ratio greater than or equal to 10 fold) |  | < 100 |  |  | < 100 | < 50 | < 1000 |  |  |
| Cc1cc(NC(=O)C(=O)N2C[C@H](C)CC[C@H]2c2ccnn2C)cnc1N (racemic) [Compound 235, N-(6-amino-5-methyl-3-pyridyl)-2-[(2R,5S)-5-methyl-2-(2-methylpyrazol-3-yl)-1-piperidyl]-2-oxo-acetamide] | 50 to 500 | 50 to 500 | > 1000 | B (an IC50 ratio greater than or equal to 3 fold but lower than 10 fold) | 50 to 500 | > 1000 | > 10000 |  |  |  |  |  |  |
| C[C@@H]1CC[C@@H](c2ccc(F)c(Cl)c2)N(C(=O)C(=O)Nc2cncc(C(N)=O)c2)C1 (single isomer, unassigned) [Compound 513] | > 500 | > 500 | > 1000 | C (an IC50 ratio of less than 3 fold) | > 500 | > 1000 | > 10000 |  |  |  |  |  |  |
| CC(=O)Nc1ccc([C@@H]2CC[C@@H](C)CN2C(=O)C(=O)Nc2cnc(N)c(C)c2)cn1 (single isomer, unassigned) [Compound 927] | > 500 | > 500 |  | C (an IC50 ratio of less than 3 fold) | > 500 | > 1000 | > 10000 |  | > 1000 |  |  |  |  |
| Cc1cc(NC(=O)C(=O)N2C[C@H](C)CC[C@H]2c2ccc(C(N)=O)s2)cnc1N (racemic) [Compound 644, 5-[(2S,5R)-1-[2-[(6-amino-5-methyl-3-pyridyl)amino]-2-oxo-acetyl]-5-methyl-2-piperidyl]thiophene-2-carboxamide] | 50 to 500 | 50 to 500 |  | A (an IC50 ratio greater than or equal to 10 fold) | 50 to 500 | 100 to 1000 |  |  | < 100 |  |  | < 1000 |  |
| CNc1nc2cc([C@H]3CC[C@H](C)CN3C(=O)C(=O)Nc3cnc(N)c(C)c3)ccc2s1 (single isomer, unassigned) [Compound 852] | 50 to 500 | < 50 | < 100 | A (an IC50 ratio greater than or equal to 10 fold) | < 50 | 100 to 1000 |  |  |  |  |  |  | < 1000 |
| Cc1ncc(NC(=O)C(=O)N2C[C@H](C)CC[C@H]2c2ccc3c(c2)CCC(=O)N3)cc1Cl (racemic) [Compound 639, N-(5-Chloro-6-methyl-3-pyridyl)-2-[(2R,5S)-5-methyl-2-(2-oxo-3,4-dihydro-1H-quinolin-6-yl)-1-piperidyl]-2-oxo-acetamide] | 50 to 500 | 50 to 500 |  | A (an IC50 ratio greater than or equal to 10 fold) | 50 to 500 | > 1000 |  |  | < 100 |  |  | 1000 to 10000 |  |
